Test results reported in ChEMBL document CHEMBL1201862, “PubChem BioAssay data set” (2004).
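Assay format: 96-well plates, 48-hour exposure. Abbreviation: GI50, concentration required for 50% inhibition of growth.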 The source made the active and inactive calls. No stated cut-off is given here; in the data, active = GI50 up to about 1.1 µM and inactive = higher.

Legend:
Assay in all cases: DTP human tumour cell line panel, 48 h
RXF 393 = system: RXF 393
UO-31 = system: UO-31
MDA-MB-435 = system: MDA-MB-435
U-251 = system: U-251
K562 = system: K562
SW-620 = system: SW-620
NCI-H460 = system: NCI-H460
Hs-578T = system: Hs-578T
SF-295 = system: SF-295
IGROV-1 = system: IGROV-1
LOX IMVI = system: LOX IMVI
HCT-15 = system: HCT-15
OVCAR-5 = system: OVCAR-5
NCI-H522 = system: NCI-H522
ACHN = system: ACHN
BT-549 = system: BT-549
NCI/ADR-RES = system: NCI/ADR-RES
M14 = system: M14
HOP-62 = system: HOP-62

SMILES	GI50 (RXF 393)	GI50 (UO-31)	GI50 (MDA-MB-435)	GI50 (U-251)	GI50 (K562)	GI50 (SW-620)	GI50 (NCI-H460)	GI50 (Hs-578T)	GI50 (SF-295)	GI50 (IGROV-1)	GI50 (LOX IMVI)	GI50 (HCT-15)	GI50 (OVCAR-5)	GI50 (NCI-H522)	GI50 (ACHN)	GI50 (BT-549)	GI50 (NCI/ADR-RES)	GI50 (M14)	GI50 (HOP-62)
Nn1c(Sc2nc3ccccc3c(=O)n2N)nc2ccccc2c1=O	7.85 µM (inactive)	1.73 µM (inactive)	6.22 µM (inactive)	7.03 µM (inactive)	2.12 µM (inactive)	2.29 µM (inactive)	19.5 µM (inactive)	17.1 µM (inactive)	18.2 µM (inactive)	6.5 µM (inactive)	1.64 µM (inactive)	3.37 µM	16.5 µM (inactive)	1.69 µM (inactive)	8.95 µM (inactive)	1.77 µM (inactive)	7.76 µM (inactive)	1.8 µM (inactive)	16.6 µM (inactive)
CC(C)C[S+]1C2=C(CC(C)(C)CC2=O)[N-]c2ccccc21 (configuration not stated)	> 100 µM (inactive)	> 100 µM (inactive)	> 100 µM (inactive)	> 100 µM (inactive)	71.9 µM (inactive)	> 100 µM (inactive)	> 100 µM (inactive)	> 100 µM (inactive)	> 100 µM (inactive)	> 100 µM (inactive)	> 100 µM (inactive)	> 100 µM	> 100 µM (inactive)	> 100 µM (inactive)	> 100 µM (inactive)	> 100 µM (inactive)	> 100 µM (inactive)	> 100 µM (inactive)	> 100 µM (inactive)
Cc1cc(S(=O)(=O)Nc2nnc3c(Cl)cc(C(F)(F)F)cn23)c(S)cc1Cl	> 100 µM (inactive)	30.2 µM (inactive)	45.5 µM (inactive)	36 µM (inactive)	66.2 µM (inactive)	> 68.4 µM (inactive)	41.8 µM (inactive)	> 64.9 µM (inactive)	71.8 µM (inactive)	50.5 µM (inactive)	> 86.3 µM (inactive)	58.1 µM	> 100 µM (inactive)	63.5 µM (inactive)	> 76.7 µM (inactive)	25.9 µM (inactive)	> 80.4 µM (inactive)	> 83.8 µM (inactive)	54.5 µM (inactive)
O=C1NN=C(c2c[nH]c3ccccc23)CC1NCc1ccccc1 (configuration not stated)	> 100 µM (inactive)	> 100 µM (inactive)	> 100 µM (inactive)	> 100 µM (inactive)	> 100 µM (inactive)	> 100 µM (inactive)	> 100 µM (inactive)	> 100 µM (inactive)	> 100 µM (inactive)	1.01 µM (active)	> 100 µM (inactive)	> 100 µM	> 100 µM (inactive)	> 100 µM (inactive)	> 100 µM (inactive)	> 100 µM (inactive)	> 100 µM (inactive)	> 100 µM (inactive)	> 100 µM (inactive)
O=[N+]([O-])c1cccc(-c2cn3c(n2)Cc2ccccc2C3)c1	> 100 µM (inactive)	51.2 µM (inactive)	83.4 µM (inactive)	39.7 µM (inactive)	> 100 µM (inactive)	> 100 µM (inactive)	85.7 µM (inactive)	85.3 µM (inactive)	78.5 µM (inactive)	> 100 µM (inactive)	39.8 µM (inactive)	> 100 µM	17.8 µM (inactive)	34.4 µM (inactive)	> 100 µM (inactive)	> 100 µM (inactive)	> 100 µM (inactive)	42.4 µM (inactive)	29.1 µM (inactive)
Oc1ccc(SCc2cc(O)ccc2O)cc1	11.9 µM (inactive)	6.05 µM (inactive)	13.1 µM (inactive)	14.5 µM (inactive)	3.96 µM (inactive)	19.1 µM (inactive)	28.9 µM (inactive)	27.9 µM (inactive)	15.6 µM (inactive)	10.1 µM (inactive)	16.6 µM (inactive)	9.55 µM	20.4 µM (inactive)	1.79 µM (inactive)	13.7 µM (inactive)	3.81 µM (inactive)	14.4 µM (inactive)	18.4 µM (inactive)	14.8 µM (inactive)
O=c1cc(CNC2CCCC2)[nH]c(=O)[nH]1	> 100 µM (inactive)	> 100 µM (inactive)	> 100 µM (inactive)	> 100 µM (inactive)	> 100 µM (inactive)	> 100 µM (inactive)	> 100 µM (inactive)	> 100 µM (inactive)	> 100 µM (inactive)	> 100 µM (inactive)	> 100 µM (inactive)	> 100 µM	> 100 µM (inactive)	> 100 µM (inactive)	> 100 µM (inactive)	> 100 µM (inactive)	> 100 µM (inactive)	> 100 µM (inactive)	> 100 µM (inactive)
COc1cc(OC)cc(-c2cc(=O)c3c(OC)c(OC)c(OC)c(OC)c3o2)c1	18.2 µM (inactive)	10.8 µM (inactive)	32.8 µM (inactive)	31.9 µM (inactive)	20.7 µM (inactive)	35.7 µM (inactive)	29 µM (inactive)	29.3 µM (inactive)	23 µM (inactive)	32.2 µM (inactive)	35.5 µM (inactive)	33.3 µM	47.3 µM (inactive)	21.2 µM (inactive)	27.2 µM (inactive)	41.1 µM (inactive)	29.8 µM (inactive)	37.2 µM (inactive)	32.6 µM (inactive)
